# How the values were obtained:
# Test in all cases: relative viability (nuclei count vs DMSO), 5 days (fraction); higher = more cells survive
# [1] = compound: O=C(Nc1cccc(C(F)(F)F)c1)Nc1cc(S(=O)(=O)NC2CC2)ccc1-c1ccsc1 [AGI-6780] + COc1cc2c(Oc3ccc(NC(=O)C4(C(=O)Nc5ccc(F)cc5)CC4)cc3F)ccnc2cc1OCCCN1CCOCC1 [Foretinib] (partner 0.25 µM)
# Method in brief: (§1)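 For relative viability, nuclei counts in treated wells were divided by those in vehicle wells. Lung cancer cell lines had been pin-tool dosed in 1536-well plates the day after seeding and cultured for 5 days, then fixed and stained in one step (final 0.05% Triton X-100, 1% formaldehyde, 1 ug/ml Hoechst) and imaged at 4×. Doses were one drug alone or a fixed anchor-drug dose plus five library-drug doses (not always all listed) in √10 steps, and values are duplicate-plate medians.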
# [2] = compound: O=C(Nc1cccc(C(F)(F)F)c1)Nc1cc(S(=O)(=O)NC2CC2)ccc1-c1ccsc1 [AGI-6780] + CS(=O)(=O)N1CCN(Cc2cc3nc(-c4cccc5[nH]ncc45)nc(N4CCOCC4)c3s2)CC1 [Pictilisib] (partner 1 µM)
# Method in brief: as §1
# [3] = compound: O=C(Nc1cccc(C(F)(F)F)c1)Nc1cc(S(=O)(=O)NC2CC2)ccc1-c1ccsc1 [AGI-6780] + NC(=O)Nc1cc(-c2cccc(F)c2)sc1C(=O)N[C@H]1CCCNC1 [AZD7762] (partner 0.2 µM)
# Method in brief: as §1
# [4] = compound: O=C(Nc1cccc(C(F)(F)F)c1)Nc1cc(S(=O)(=O)NC2CC2)ccc1-c1ccsc1 [AGI-6780] + O=C(CCCCCCC(=O)Nc1ccccc1)NO [Vorinostat] (partner 1 µM)
# Method in brief: as §1
Cell Line,relative viability ([1]; first compound 0.08 µM),relative viability ([1]; first compound 0.253 µM),relative viability ([1]; first compound 0.8 µM),relative viability ([1]; first compound 2.53 µM),relative viability ([1]; first compound 8 µM),relative viability ([2]; first compound 0.08 µM),relative viability ([2]; first compound 0.253 µM),relative viability ([2]; first compound 0.8 µM),relative viability ([2]; first compound 8 µM),relative viability ([3]; first compound 0.08 µM),relative viability ([3]; first compound 0.253 µM),relative viability ([3]; first compound 0.8 µM),relative viability ([3]; first compound 8 µM),relative viability ([4]; first compound 0.08 µM),relative viability ([4]; first compound 0.253 µM),relative viability ([4]; first compound 0.8 µM),relative viability ([4]; first compound 8 µM),relative viability ([2]; first compound 2.53 µM),relative viability ([4]; first compound 2.53 µM),relative viability ([3]; first compound 2.53 µM)
BEN,0.481,0.654,0.662,0.533,0.619,0.527,0.629,0.586,0.521,0.6,0.737,0.754,0.721,0.62,0.539,0.692,0.629,,,
ABC-1,1.13,1.17,1.11,1.07,0.941,0.86,0.865,1.05,0.756,0.774,0.967,0.891,1.08,,1.52,1.38,1.03,0.864,0.842,
HCC-366,0.857,0.951,0.96,0.881,0.828,0.185,0.111,0.108,0.175,0.232,0.293,0.34,0.193,0.355,0.315,0.346,0.446,0.15,0.285,0.35
NCI-H2170,0.994,0.978,1.1,0.928,0.984,0.348,0.358,0.328,0.303,0.803,0.904,0.987,0.827,0.882,0.996,0.835,0.833,,,
NCI-H358,0.631,0.688,0.647,0.573,0.79,0.355,0.38,0.355,0.336,0.678,0.504,0.648,0.475,1.07,0.616,0.709,0.675,0.289,0.602,0.501
EKVX,0.684,0.91,0.756,0.399,0.849,0.445,0.437,0.495,0.495,0.675,0.728,0.806,0.641,0.827,0.686,0.752,0.614,0.395,0.721,0.681
NCI-H1975,0.979,0.944,0.897,,0.896,0.315,0.3,0.31,0.26,0.662,0.848,0.821,0.711,0.711,0.742,0.66,0.694,0.244,0.697,0.653
LU99A,0.915,0.813,0.874,0.633,0.738,0.396,0.339,0.339,0.317,0.404,0.422,0.45,0.421,0.568,0.461,0.502,0.466,0.273,0.335,0.345
NCI-H2405,1.06,1.01,0.746,1.02,1,0.411,0.467,0.262,0.53,,0.725,0.603,0.658,,0.975,0.943,0.954,,0.937,0.752

# From the supplement of paper PMC10307832
